Reference: the supplement of paper PMC11616607

How the values were obtained:
Experiment in all cases: drug sensitivity score (DSS) from 5-point dose-response viability curve (DSS (area-under-curve based score)); higher = more sensitive (stronger growth inhibition or killing); extreme values may be limits of the assay
Conditions in all cases: exposure time: 72 h; concentration range: 5 concentrations over 10,000-fold range
CAOV3 = system: CAOV3
Method in brief: (§1)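 Drug sensitivity scores were calculated in Breeze software for each cell line and drug pair; higher scores indicate more sensitivity. A score of zero indicates no response. The underlying assay used 384-well plates: drugs were placed by an Echo 550 acoustic dispenser at five concentrations spanning a 10,000-fold range, 1,500 ovarian cancer or normal ovarian cells were added per well, and cells were kept 3 days at 37°C, 5% CO2. Viability was then measured with CellTiter-Glo luminescence on a PHERAstar FS.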

HOSE1C = system: HOSE1C
Method in brief: as §1

Kuramochi = system: Kuramochi
Method in brief: as §1

COV362 = system: COV362
Method in brief: as §1

HOSE2C = system: HOSE2C
Method in brief: as §1

JHOS2 = system: JHOS2
Method in brief: as §1

Ovsaho = system: Ovsaho
Method in brief: as §1

OVCAR5 = system: OVCAR5
Method in brief: as §1

OVCAR4 = system: OVCAR4
Method in brief: as §1

OVCAR8 = system: OVCAR8
Method in brief: as §1

COV318 = system: COV318
Method in brief: as §1

OV90 = system: OV90
Method in brief: as §1

Row | SMILES | drug sensitivity score (CAOV3) | drug sensitivity score (HOSE1C) | drug sensitivity score (Kuramochi) | drug sensitivity score (COV362) | drug sensitivity score (HOSE2C) | drug sensitivity score (JHOS2) | drug sensitivity score (Ovsaho) | drug sensitivity score (OVCAR5) | drug sensitivity score (OVCAR4) | drug sensitivity score (OVCAR8) | drug sensitivity score (COV318) | drug sensitivity score (OV90)
1 | Nc1nc(F)nc2c1ncn2[C@@H]1O[C@H](CO)[C@@H](O)[C@@H]1O [Fludarabine] | 0.2 | 25.2 | 0 | 0.5 | 22.6 | 0 | 0.1 | 0 | 0.2 | 4.4 | 0 | 1.5
2 | Cc1cn(-c2cc(NC(=O)c3ccc(C)c(Nc4nccc(-c5cccnc5)n4)c3)cc(C(F)(F)F)c2)cn1 [Nilotinib] | 0 | 0 | 0 | 1.2 | 0 | 0 | 0 | 2 | 0.9 | 3.4 | 0.1 | 0
3 | Cn1cncc1[C@@](N)(c1ccc(Cl)cc1)c1ccc2c(c1)c(-c1cccc(Cl)c1)cc(=O)n2C [Tipifarnib] | 3.1 | 9.2 | 6.8 | 1.7 | 3 | 3.1 | 7.5 | 4.3 | 4.7 | 4.2 | 5.2 | 4.7
4 | C[C@@H](C(=O)O)c1ccc(-c2ccccc2)c(F)c1 [Tarenflurbil] | 0 | 0 | 0 | 0 | 0 | 0.7 | 0 | 0.3 | 0 | 0 | 0.3 | 1.3
5 | O=C(O)c1ccc(-c2c[nH]c3ncc(-c4ccccc4)cc23)cc1C1CCCC1 | 2.3 | 0 | 0 | 0.1 | 1.2 | 0 | 0 | 1.4 | 0 | 0.3 | 0 | 1.2
6 | CCS(=O)(=O)Nc1ccc(Oc2ccc(F)cc2F)c(-c2cn(C)c(=O)c3[nH]ccc23)c1 [Mivebresib] | 25.3 | 30.7 | 22.6 | 9.4 | 25.6 | 18.4 | 22.8 | 20.2 | 18.3 | 24.7 | 6.4 | 22.1
7 | Cc1c(Cn2c(C)nc3c(C(=O)O)cc(N4CCOCC4)cc32)cccc1C(F)(F)F | 0 | 1.2 | 3.7 | 0 | 0 | 0 | 3.8 | 0 | 0 | 0 | 0 | 0
8 | CCOC(=O)CCNc1cc(N2CCc3ccccc3CC2)nc(-c2ccccn2)n1 [GSK-J4] | 1.6 | 2.5 | 9 | 0 | 0.8 | 0 | 1.9 | 0.6 | 2.9 | 1.5 | 6.9 | 4.6
9 | C=CC(=O)Nc1cccc(Oc2nc(Nc3ccc(N4CCN(C)CC4)cc3)nc3ccsc23)c1 [Olmutinib] | 0.3 | 0 | 0.7 | 0.6 | 0 | 0 | 0.5 | 0.7 | 0.1 | 0 | 0.3 | 0
10 | CN(C(=O)c1ccc(F)cc1C(F)(F)F)C1CCN(c2nnc(-c3ccnn3C)c3ccccc23)CC1 [Taladegib] | 0 | 0 | 0 | 0 | 0 | 0 | 0 | 0.2 | 0 | 0 | 0.1 | 0
11 | NC(=S)N/N=C/c1ncccc1N [Triapine] | 4.1 | 9.7 | 0.5 | 0.5 | 7.7 | 3.1 | 2.4 | 2.6 | 0 | 4.9 | 0.6 | 1.1
12 | C=CC(=O)Nc1cc2c(Nc3ccc(F)c(Cl)c3)ncnc2cc1OCCCN1CCOCC1 [Canertinib] | 13.2 | 8.4 | 8 | 5.9 | 8.2 | 7.5 | 8.3 | 8 | 7.7 | 8.4 | 4.3 | 7.3
13 | Cc1ccc(F)c(NC(=O)Nc2ccc(-c3cccc4[nH]nc(N)c34)cc2)c1 [Linifanib] | 0 | 0 | 0 | 0 | 0 | 0 | 0 | 0 | 0 | 0 | 0.2 | 0
14 | CN(C)c1cc2c(cc1Sc1nc3c(N)nccc3n1CCNCC(C)(C)C)OCO2 [CUDC-305] | 14.5 | 11.5 | 5.9 | 8.8 | 15.3 | 10.8 | 3 | 10.8 | 8.5 | 16.4 | 4 | 14.5
15 | COc1ccc(-c2ccc3c(N4CCOC[C@@H]4C)nc(N4CCOC[C@@H]4C)nc3n2)cc1CO [AZD8055] | 15.6 | 20.7 | 15.6 | 6.4 | 16.2 | 14.4 | 16.9 | 18.4 | 17.5 | 17.2 | 13.6 | 20.8
16 | CO[C@H]1C[C@@H]2CC[C@@H](C)[C@@](O)(O2)C(=O)C(=O)N2CCCC[C@H]2C(=O)O[C@H]([C@H](C)C[C@@H]2CC[C@@H](OCCO)[C@H](OC)C2)CC(=O)[C@H](C)/C=C(\C)[C@@H](O)[C@@H](OC)C(=O)[C@H](C)C[C@H](C)/C=C/C=C/C=C/1C [Everolimus] | 4.8 | 4.3 | 5.9 | 0.6 | 6.3 | 4.7 | 4 | 6.2 | 2.5 | 5.5 | 2.2 | 10
17 | COc1cccc2c1C(=O)c1c(O)c3c(c(O)c1C2=O)C[C@@](O)(C(=O)CO)C[C@@H]3O[C@H]1C[C@H](N)[C@@H](O)[C@H](C)O1 [Epirubicin] | 9.9 | 9.6 | 4.6 | 1 | 10.3 | 5.7 | 7.1 | 5.1 | 2.9 | 8.9 | 0.7 | 5.7
18 | Nc1nc(NC2CC2)cc(-c2cccc(Cl)c2Cl)n1 [TH588] | 1.9 | 0 | 1.6 | 0.4 | 0 | 0 | 3.7 | 1.9 | 1.8 | 2.4 | 0.9 | 0
19 | Nc1nccc(-c2c(-c3ccc(F)cc3)ncn2C2CCCCC2)n1 | 1.7 | 1.6 | 0.1 | 0 | 0.9 | 0 | 0 | 1.9 | 0 | 0.7 | 0 | 0
20 | Nc1cc(C(F)(F)F)c(-c2cc(N3CCOCC3)nc(N3CCOCC3)n2)cn1 [Buparlisib] | 8.7 | 8.6 | 6.1 | 3.8 | 8.8 | 4.6 | 6.5 | 8.8 | 5.3 | 7.7 | 4.6 | 5.1
21 | CO[C@H]1C[C@@H]2CC[C@@H](C)[C@@](O)(O2)C(=O)C(=O)N2CCCC[C@H]2C(=O)O[C@H]([C@H](C)C[C@@H]2CC[C@@H](O)[C@H](OC)C2)CC(=O)[C@H](C)/C=C(\C)[C@@H](O)[C@@H](OC)C(=O)[C@H](C)C[C@H](C)/C=C/C=C/C=C/1C [Sirolimus] | 3.9 | 4.8 | 3.8 | 0 | 0 | 3.6 | 4.4 | 4.3 | 1.9 | 4 | 1.2 | 7.7
22 | Nc1nc(N)c2nc(-c3cccc(O)c3)c(-c3cccc(O)c3)nc2n1 [TG100-115] | 0.3 | 0 | 1.2 | 0.9 | 0 | 0 | 0 | 0.4 | 2.3 | 0 | 0 | 0
23 | NS(=O)(=O)OC[C@@H]1C[C@@H](n2ccc3c(N[C@H]4CCc5ccccc54)ncnc32)C[C@@H]1O [Pevonedistat] | 25.6 | 17.2 | 7.8 | 8.7 | 22.6 | 15 | 6.1 | 6.3 | 2.6 | 16.3 | 3.5 | 16.2
24 | CC[C@@H]1CN(C(=O)NCC(F)(F)F)C[C@@H]1c1cnc2cnc3[nH]ccc3n12 [Upadacitinib] | 0 | 0 | 0.8 | 0.2 | 0 | 0 | 0 | 0 | 0 | 0 | 2.1 | 1.3
25 | CCC/C=C/C=C/C(=O)O[C@H]1/C(=C/C(=O)OC)C[C@H]2C[C@H]([C@@H](C)O)OC(=O)C[C@H](O)C[C@@H]3C[C@H](OC(C)=O)C(C)(C)[C@](O)(C[C@@H]4C/C(=C/C(=O)OC)C[C@H](/C=C/C(C)(C)[C@]1(O)O2)O4)O3 [Bryostatin 1] | 0.1 | 10.3 | 0 | 8.9 | 1.6 | 0 | 0 | 0.2 | 1.1 | 0 | 1.4 | 1.4
26 | CN1CCc2c(c3ccccc3n2Cc2ccc(C(=O)NO)cc2)C1 [Tubastatin A] | 0.7 | 4.2 | 1.5 | 1.7 | 2.7 | 1.8 | 1 | 5.2 | 1.7 | 4.6 | 0.9 | 3.4
